# In ChEMBL document CHEMBL5518170, “Dual target PARP1/EZH2 inhibitors inducing excessive autophagy and producing synthetic lethality for triple-negative breast cancer therapy” (Eur J Med Chem, 2024):
# Columns and labels:
# [1] = tested on: MCF-10A; assay: cells; conditions: Homo sapiens, 72 h
# Description: Cytotoxicity against human MCF-10A cells incubated for 72 hrs by MTT assay
# [2] = tested on: BT-549; assay: cells; conditions: Homo sapiens, BT-549, 72 h
# Description: Cytotoxicity against human BT-549 cells incubated for 72 hrs by MTT assay
# [3] = tested on: MDA-MB-231; assay: cells; conditions: Homo sapiens, MDA-MB-231, 72 h
# Description: Cytotoxicity against human MDA-MB-231 cells incubated for 72 hrs by MTT assay
# [4] = tested on: MDA-MB-231; assay: cells; conditions: Homo sapiens, MDA-MB-231, 72 h; remark: listed apart in the source
# [5] = tested on: MDA-MB-231; assay: Synergistic antitumor activity against human MDA-MB-231 cells xenografted in BALB/c mouse assessed as tumor growth inhibition at 50 mg/kg,ip administrated in presence of Niraparib for 21 consecutive days; type: functional; conditions: read-out: TGI
# [6] = tested on: MCF-10A; assay: cells; conditions: Homo sapiens, 72 h; remark: listed apart in the source
# [7] = tested on: BT-549; assay: cells; conditions: Homo sapiens, BT-549, 72 h; remark: listed apart in the source
SMILES,IC50 [2],IC50 [3],IC50 [4],IC50 [7],IC50 [1],inhibition in vivo at 50 mg/kg [5],IC50 [6]
CCNc1cc(-c2ccc(CC(=O)N3CCC(c4nc5c(C(N)=O)cccc5[nH]4)CC3)cc2)cc(C(=O)NCc2c(C)cc(C)[nH]c2=O)c1C,> 40 µM,> 40 µM,,,> 40 µM,,
CCNc1cc(-c2ccc(CC(=O)NCCc3nc4c(C(N)=O)cccc4[nH]3)cc2)cc(C(=O)NCc2c(C)cc(C)[nH]c2=O)c1C,31.5 µM,> 40 µM,,,> 40 µM,,
CCNc1cc(-c2ccc(CC(=O)NCCCCCc3nc4c(C(N)=O)cccc4[nH]3)cc2)cc(C(=O)NCc2c(C)cc(C)[nH]c2=O)c1C,> 40 µM,> 40 µM,,,> 40 µM,,
CCNc1cc(-c2ccc(CC(=O)N3CCC[C@H](c4nc5c(C(N)=O)cccc5[nH]4)C3)cc2)cc(C(=O)NCc2c(C)cc(C)[nH]c2=O)c1C,23.5 µM,33.7 µM,,,> 40 µM,,
CCNc1cc(-c2ccc(CC(=O)NCc3nc4c(C(N)=O)cccc4[nH]3)cc2)cc(C(=O)NCc2c(C)cc(C)[nH]c2=O)c1C,21.8 µM,> 40 µM,,,> 40 µM,,
CCNc1cc(-c2ccc(CC(=O)NCCCCc3nc4c(C(N)=O)cccc4[nH]3)cc2)cc(C(=O)NCc2c(C)cc(C)[nH]c2=O)c1C,> 40 µM,> 40 µM,,,> 40 µM,,
CCNc1cc(-c2ccc(CC(=O)NCCCc3nc4c(C(N)=O)cccc4[nH]3)cc2)cc(C(=O)NCc2c(C)cc(C)[nH]c2=O)c1C,37.2 µM,> 40 µM,,,> 40 µM,,
CCNc1cc(-c2ccc(CC(=O)N3CC(c4nc5c(C(N)=O)cccc5[nH]4)C3)cc2)cc(C(=O)NCc2c(C)cc(C)[nH]c2=O)c1C,> 40 µM,> 40 µM,,,> 40 µM,,
CCNc1cc(-c2ccc(CC(=O)N3CC[C@@H](c4nc5c(C(N)=O)cccc5[nH]4)C3)cc2)cc(C(=O)NCc2c(C)cc(C)[nH]c2=O)c1C,22.6 µM,> 40 µM,,,> 40 µM,,

# Second part, led by results:
IC50 [2],IC50 [3],IC50 [4],IC50 [7],SMILES,IC50 [1],inhibition in vivo at 50 mg/kg [5],IC50 [6]
> 40 µM,> 40 µM,,,CCNc1cc(-c2ccc(CC(=O)N3CCC(Cc4nc5c(C(N)=O)cccc5[nH]4)CC3)cc2)cc(C(=O)NCc2c(C)cc(C)[nH]c2=O)c1C,> 40 µM,,
> 40 µM,> 40 µM,,,CCNc1cc(-c2ccc(CC(=O)Nc3ccc(-c4nc5c(C(N)=O)cccc5[nH]4)cc3)cc2)cc(C(=O)NCc2c(C)cc(C)[nH]c2=O)c1C,> 40 µM,,
> 40 µM,> 40 µM,,,CCn1ccc2c(C(=O)NCc3c(C)cc(C)[nH]c3=O)cc(-c3ccc(-c4nc5c(C(N)=O)cccc5[nH]4)cc3)cc21,> 40 µM,,
19.2 µM,13.2 µM,6.32 µM,8.28 µM,CC[C@H](C)n1cc(C)c2c(C(=O)NCc3c(C)cc(C)[nH]c3=O)cc(-c3ccc(N4CCNCC4)nc3)cc21 [GSK2816126],> 40 µM,57.2%,> 40 µM
35.2 µM,35.8 µM,,,O=C(c1cc(Cc2n[nH]c(=O)c3ccccc23)ccc1F)N1CCN(C(=O)C2CC2)CC1 [OLAPARIB],> 40 µM,,
